According to ChEMBL document CHEMBL4699523, “Predicting the Human Hepatic Clearance of Acidic and Zwitterionic Drugs” (J Med Chem, 2020):

Key:
in vitro [1] = conditions: rat, plasma
Description: Fraction unbound in rat plasma

[2] = cynomolgus monkey, in vivo, iv, 1 mg/kg
in vitro [3] = conditions: dog, MDCK, pH 7.4
Description: Apparent permeability in dog MDCKII-LE cells at pH 7.4

in vitro [4] = conditions: cynomolgus monkey, plasma
Description: Fraction unbound in cynomolgus monkey plasma

in vitro [5] = conditions: human, plasma
Description: Fraction unbound in human plasma

[6] = rat, in vivo, iv, 1 mg/kg
in vitro [7] = conditions: human, cryopreserved hepatocytes
[8] = human, in vivo, iv
Description: Hepatic clearance in human administered through iv dosing

in vivo = conditions: cynomolgus monkey, blood and plasma, iv
Description: Ratio of drug level in cynomolgus monkey blood to plasma administered through iv dosing by LC-MS/MS analysis

clinical = conditions: human, blood and plasma, iv
Description: Ratio of drug level in human blood to plasma administered through iv dosing by LC-MS/MS analysis

physchem [9] = assay: physchem
physchem [10] = conditions: buffer, pH 7.4

Structure (SMILES) | fraction unbound (in vitro [1]) | CLH [2] [mL/min/kg] | Papp (in vitro [3]) [×10⁻⁶ cm/s] | fraction unbound (in vitro [4]) | fraction unbound (in vitro [5]) | CLH [6] [mL/min/kg] | CLint scaled at 2 h, 1 µM (in vitro [7]) [mL/min/kg] | CLH [8] [mL/min/kg] | blood plasma ratio (in vivo) | blood plasma ratio (clinical) | pKa at 0.3 h (physchem [9]) | logD (physchem [10])
CCCCC(=O)N(Cc1ccc(-c2ccccc2-c2nnn[nH]2)cc1)[C@H](C(=O)O)C(C)C | 0.00302 | 8.4 | 0.32 | 0.0145 | 0.00415 | 5.1 | 1.6 | 0.35 | – | – | – | –
O=C(O)c1cccc(Cc2cc(Cl)ccc2OCc2ccc(Cl)cc2F)n1 | – | 19.5 | 12 | 0.00288 | 0.0024 | – | 180 | 2 | 0.561 | 0.654 | 5.3 | –
CC(C)(C)OC(=O)N[C@H]1CCCCC/C=C\[C@@H]2C[C@@]2(C(=O)NS(=O)(=O)C2CC2)NC(=O)[C@@H]2C[C@@H](OC(=O)N3Cc4cccc(F)c4C3)CN2C1=O [DANOPREVIR] | – | 26.3 | 2.5 | 0.085 | 0.072 | – | – | 10.8 | 0.73 | 0.73 | – | –
CCCCCN(CCCOC)C(=O)[C@@H](CCC(=O)O)NC(=O)c1ccc(Cl)c(Cl)c1 [DEXLOXIGLUMIDE] | – | 1.4 | 4.6 | 0.00771 | 0.00969 | – | 26 | 3.3 | 0.596 | 0.563 | 4.2 | 1.5
O=C(O)Cc1ccccc1Nc1c(Cl)cccc1Cl [DICLOFENAC] | 0.00598 | 10.8 | – | 0.0047 | 0.00376 | 17.5 | 176 | 4.1 | – | – | – | –
CC(C)(C)NC(=O)[C@H]1CC[C@H]2[C@@H]3CC=C4C=C(C(=O)O)CC[C@]4(C)[C@H]3CC[C@]12C [EPRISTERIDE] | – | 1.5 | 20 | 0.00917 | 0.0138 | – | 23 | 0.33 | 0.55 | 0.55 | 4.6 | 3.4
CC(C)n1c(/C=C/C(O)CC(O)CC(=O)O)c(-c2ccc(F)cc2)c2ccccc21 (configuration not stated) [FLUVASTATIN] | 0.009 | – | 11 | – | 0.00922 | – | – | – | – | – | 4.4 | 1.4
COc1ccc2c(c1)C(=O)N(CCc1ccc(S(=O)(=O)NC(=O)NC3CCCCC3)cc1)C(=O)C2(C)C [GLIQUIDONE] | – | 3.5 | 5.7 | 0.0015 | 0.0035 | – | – | 0.96 | 0.62 | 0.62 | – | –
CC(C)Cc1ccc(C(C)C(=O)O)cc1 (configuration not stated) [IBUPROFEN] | – | – | 33 | – | – | – | – | – | – | – | – | 1.1
O=C(O)c1ccc(NC(=O)[C@H](CC2CCCC2)n2cnc(C(F)(F)F)c2)nc1 [PF-04991532] | – | – | – | – | – | – | – | – | – | – | – | 0.7
CCN1CC(n2nccc2-c2cc(Cl)ccc2Oc2ccc(S(=O)(=O)Nc3cscn3)cc2C#N)C1 [PF-05150122] | – | – | – | – | – | 271 | – | 3.2 | – | – | – | 1.1
O=S(=O)(Nc1nncs1)c1cc(Cl)c(Oc2ccc(C(F)(F)F)cc2-c2ccnnc2)cc1F [PF-05186462] | – | – | 0.8 | – | – | – | – | 1.3 | – | – | 4.1 | 0.8
CCO[C@@H](Cc1ccc(OCCc2ccc(OS(C)(=O)=O)cc2)cc1)C(=O)O [TESAGLITAZAR] | – | 0.135 | – | 0.00151 | 0.00273 | – | 4.7 | 0.03 | 0.687 | 0.699 | 3.4 | -0.1
